Here are results for 28 compounds from US20110166121A1 (LG LIFE SCIENCES LTD., priority 2008, published 2011).

This assay concerns Human platelet aggregation caused by ADP. Put plainly: Inhibition of ADP-induced platelet aggregation (Mimic-human PRP). It counts as cell-based. The following applies: 20 μM ADP, human platelet concentrate diluted with PPP, absorption at 595 nm. Put shortly: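 Human PRP diluted with PPP to 3–4×10^8 platelets/mL was preincubated 20 min at room temperature with compound (0.01–30 μM, DMSO), then stimulated with 20 μM ADP. Aggregation read as A595 increase at 3 min versus 0 and 20 μM ADP controls; Ki from sigmoidal non-linear regression.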

As to `CCCc1cc2c(N3CCn4c(nnc4C(F)(F)F)C3)nc(OCCn3cncn3)nc2s1` [Example 9-44, 7-[6-Propyl-2-(2-[1,2,4]triazol-1-yl-ethoxy)-thieno[2,3-d]pyrimidin-4-yl]-3-trifluoromethyl-5,6,7,8-tetrahydro-[1,2,4]triazolo[4,3-a]pyrazine], affinity was put at a Ki of 9.8 nM.
Compound `CCCc1cc2c(N3CCn4c(nnc4C(F)(F)F)C3)nc(NCCc3c[nH]cn3)nc2s1` [Example 9-45, [2-(1H-Imidazol-4-yl)-ethyl]-[6-propyl-4-(3-trifluoromethyl-5,6-dihydro-8H-[1,2,4]triazolo[4,3-a]pyrazin-7-yl)-thieno[2,3-d]pyrimidin-2-yl]-amine] registered a Ki of 38 nM.
With `CCCc1cc2c(N3CCn4c(nnc4C(F)(F)F)C3)nc(-n3cnc(CCN)c3)nc2s1` [Example 9-46, 2-{1-[6-Propyl-4-(3-trifluoromethyl-5,6-dihydro-8H-[1,2,4]triazolo[4,3-a]pyrazin-7-yl)-thieno[2,3-d]pyrimidin-2-yl]-1H-imidazol-4-yl}-ethylamine], the affinity corresponds to a Ki of 530 nM.
Consider `CCCc1cc2c(N3CCn4c(nnc4C(F)(F)F)C3)nc(-n3ccc([N+](=O)[O-])c3)nc2s1` [Example 9-47, 7-[2-(3-Nitro-pyrrole-1-yl)-6-propyl-thieno[2,3-d]pyrimidin-4-yl]-3-trifluoromethyl-5,6,7,8-tetrahydro-[1,2,4]triazolo[4,3-a]pyrazine], for which the Ki amounted to 3900 nM.
For `CCCc1cc2c(N3CCn4c(nnc4C(F)(F)F)C3)nc(N(CCO)c3cnccn3)nc2s1` [Example 9-50, 2-{[6-Propyl-4-(3-trifluoromethyl-5,6-dihydro-8H-[1,2,4]triazolo[4,3-a]pyrazin-7-yl)-thieno[2,3-d]pyrimidin-2-yl]-pyrazin-2-yl-amino}-ethanol], the Ki is 230 nM.
In turn, `CCCc1cc2c(N3CCn4c(nnc4C(F)(F)F)C3)nc(N3CC(=O)N(CCO)C3=O)nc2s1` [Example 9-51, 3-(2-Hydroxy-ethyl)-1-[6-propyl-4-(3-trifluoromethyl-5,6-dihydro-8H-[1,2,4]triazolo[4,3-a]pyrazin-7-yl)-thieno[2,3-d]pyrimidin-2-yl]-imidazolidine-2,4-dione] came in with a Ki of 190 nM.
With `CCCc1cc2c(N3CCn4c(nnc4C(F)(F)F)C3)nc(-n3ccc(N)n3)nc2s1` [Example 9-52, 1-[6-Propyl-4-(3-trifluoromethyl-5,6-dihydro-8H-[1,2,4]triazolo[4,3-a]pyrazin-7-yl)-thieno[2,3-d]pyrimidin-2-yl]-1H-pyrazol-3-ylamine], the affinity corresponds to a Ki of 16 nM.
`CCCc1cc2c(N3CCn4c(nnc4C(F)(F)F)C3)nc(Nc3cc[nH]n3)nc2s1` [Example 9-53, [6-Propyl-4-(3-trifluoromethyl-5,6-dihydro-8H-[1,2,4]triazolo[4,3-a]pyrazin-7-yl)-thieno[2,3-d]pyrimidin-2-yl]-(1H-pyrazol-3-yl)-amine] returned a Ki of 31 nM.
`CCCc1cc2c(N3CCn4c(nnc4C(F)(F)F)C3)nc(-n3ccc(NC(C)=O)n3)nc2s1` [Example 9-54, N-{1-[6-Propyl-4-(3-trifluoromethyl-5,6-dihydro-8H-[1,2,4]triazolo[4,3-a]pyrazin-7-yl)-thieno[2,3-d]pyrimidin-2-yl]-1H-pyrazol-3-yl}-acetamide]: the Ki was 130 nM.
The same measure for `CCCc1cc2c(N3CCn4c(nnc4C(F)(F)F)C3)nc(-n3cc(C)cn3)nc2s1` [Example 9-55, 7-[2-(4-Methyl-pyrazol-1-yl)-6-propyl-thieno[2,3-d]pyrimidin-4-yl]-3-trifluoromethyl-5,6,7,8-tetrahydro-[1,2,4]triazolo[4,3-a]pyrazine]: 340 nM.
Regarding `CCCc1cc2c(N3CCn4c(nnc4C(F)(F)F)C3)nc(-n3cc(N)cn3)nc2s1` [Example 9-56, 1-[6-Propyl-4-(3-trifluoromethyl-5,6-dihydro-8H-[1,2,4]triazolo[4,3-a]pyrazin-7-yl)-thieno[2,3-d]pyrimidin-2-yl]-1H-pyrazol-4-ylamine], the Ki stood at 30 nM.
On to `CCCc1cc2c(N3CCn4c(nnc4C(F)(F)F)C3)nc(-n3cc(NC(C)=O)cn3)nc2s1` [Example 9-57, N-{1-[6-Propyl-4-(3-trifluoromethyl-5,6-dihydro-8H-[1,2,4]triazolo[4,3-a]pyrazin-7-yl)-thieno[2,3-d]pyrimidin-2-yl]-1H-pyrazol-4-yl}-acetamide], for which the affinity, expressed as Ki, was 410 nM.
Compound `CCCc1cc2c(N3CCn4c(nnc4C(F)(F)F)C3)nc(Nc3cn[nH]c3)nc2s1` [Example 9-58, [6-Propyl-4-(3-trifluoromethyl-5,6-dihydro-8H-[1,2,4]triazolo[4,3-a]pyrazin-7-yl)-thieno[2,3-d]pyrimidin-2-yl]-(1H-pyrazol-4-yl)-amine] registered a Ki of 22 nM.
With `CCCc1cc2c(N3CCn4c(nnc4C(F)(F)F)C3=O)nc(OCCC(=O)O)nc2s1` [Example 9-59, 3-[4-(8-Oxo-3-trifluoromethyl-5,6-dihydro-8H-[1,2,4]triazolo[4,3-a]pyrazin-7-yl)-6-propyl-thieno[2,3-d]pyrimidin-2-yloxy]-propionic acid], the Ki is above 10000 nM.
In the case of `CCC(=O)c1cc2c(N3CCn4c(nnc4C(F)(F)F)C3)nc(OCCC(=O)O)nc2s1` [Example 9-61, 3-[6-Propionyl-4-(3-trifluoromethyl-5,6-dihydro-8H-[1,2,4]triazolo[4,3-a]pyrazin-7-yl)-thieno[2,3-d]pyrimidin-2-yloxy]-propionic acid], the Ki was above 10000 nM.
Under `CCCCNC(=O)[C@H]1CCN(c2nc(N3CCn4c(nnc4C(F)(F)F)C3)c3cc(CCC)sc3n2)C1` [Example 9-62, (S)-1-[6-Propyl-4-(3-trifluoromethyl-5,6-dihydro-8H-[1,2,4]triazolo[4,3-a]pyrazin-7-yl)-thieno[2,3-d]pyrimidin-2-yl]-pyrrolidine-3-carboxylic acid butylamide] stands 400 nM; under `CCCCN(C)C(=O)[C@H]1CCN(c2nc(N3CCn4c(nnc4C(F)(F)F)C3)c3cc(CCC)sc3n2)C1` [Example 9-63, (S)-1-[6-Propyl-4-(3-trifluoromethyl-5,6-dihydro-8H-[1,2,4]triazolo[4,3-a]pyrazin-7-yl)-thieno[2,3-d]pyrimidin-2-yl]-pyrrolidine-3-carboxylic acid butyl-methyl-amide], 2000 nM.
In turn, `CCCc1cc2c(N3CCn4c(nnc4C(F)(F)F)C3)nc(N3CC[C@H](C(=O)NC4CCCC4)C3)nc2s1` [Example 9-64, (S)-1-[6-Propyl-4-(3-trifluoromethyl-5,6-dihydro-8H-[1,2,4]triazolo[4,3-a]pyrazin7-yl)-thieno[2,3-d]pyrimidin-2-yl]-pyrrolidine-3-carboxylic acid cyclopentylamide] came in with a Ki of 1400 nM.
Under `CCCc1cc2c(N3CCn4c(nnc4C(F)(F)F)C3)nc(N3CC[C@H](C(=O)N(C)C4CCCCC4)C3)nc2s1` [Example 9-65] stands 9300 nM.
Compound `CCCc1cc2c(N3CCn4c(nnc4C(F)(F)F)C3)nc(OCCC(=O)NC)nc2s1` [Example 9-66, N-Methyl-3-[6-propyl-4-(3-trifluoromethyl-5,6-dihydro-8H-[1,2,4]triazolo[4,3-a]pyrazin-7-yl)-thieno[2,3-d]pyrimidin-2-yloxy]-propionamide] showed a Ki of 5.2 nM.
The same measure for `CCCc1cc2c(N3CCn4c(nnc4C(F)(F)F)C3)nc(OCCC(=O)N(C)C)nc2s1` [Example 9-67, N,N-Dimethyl-3-[6-propyl-4-(3-trifluoromethyl-5,6-dihydro-8H-[1,2,4]triazolo[4,3-a]pyrazin-7-yl)-thieno[2,3-d]pyrimidin-2-yloxy]-propionamide]: 97 nM.
Under `CCCc1cc2c(N3CCn4c(nnc4C(F)(F)F)C3)nc(OCCC(=O)N3CCCC3)nc2s1` [Example 9-68, 3-[6-Propyl-4-(3-trifluoromethyl-5,6-dihydro-8H-[1,2,4]triazolo[4,3-a]pyrazin-7-yl)-thieno[2,3-d]pyrimidin-2-yloxy]-1-pyrrolidin-1-yl-propan-1-one] stands 260 nM; under `CCCc1cc2c(N3CCn4c(nnc4C(F)(F)F)C3)nc(OCCC(=O)NC3CCCC3)nc2s1` [Example 9-69, N-Cyclopentyl-3-[6-propyl-4-(3-trifluoromethyl-5,6-dihydro-8H-[1,2,4]triazolo[4,3-a]pyrazin-7-yl)-thieno[2,3-d]pyrimidin-2-yloxy]-propionamide], 550 nM; under `CCCc1cc2c(N3CCn4c(nnc4C(F)(F)F)C3)nc(OCCC(N)=O)nc2s1` [Example 9-70, 3-[6-Propyl-4-(3-trifluoromethyl-5,6-dihydro-8H-[1,2,4]triazolo[4,3-a]pyrazin-7-yl)-thieno[2,3-d]pyrimidin-2-yloxy]-propionamide], 6 nM.
`CCCc1cc2c(N3CCn4c(nnc4C(F)(F)F)C3)nc(OCCC#N)nc2s1` [Example 9-71, 3-[6-Propyl-4-(3-trifluoromethyl-5,6-dihydro-8H-[1,2,4]triazolo[4,3-a]pyrazin-7-yl)-thieno[2,3-d]pyrimidin-2-yloxy]-propionitrile] returned a Ki of 0.7 nM.
`CCCc1cc2c(N3CCn4c(nnc4C(F)(F)F)C3)nc(N3CC[C@H](C(=O)NN)C3)nc2s1` [Example 9-72, (S)-1-[6-Propyl-4-(3-trifluoromethyl-5,6-dihydro-8H-[1,2,4]triazolo[4,3-a]pyrazin-7-yl)-thieno[2,3-d]pyrimidin-2-yl]-pyrrolidine-3-carboxylic acid hydrazide] had a Ki of 0.6 nM.
In turn, `CCCc1cc2c(N3CCn4c(nnc4C(F)(F)F)C3)nc(OCCC(=O)NN)nc2s1` [Example 9-73, 3-[6-Propyl-4-(3-trifluoromethyl-5,6-dihydro-8H-[1,2,4]triazolo[4,3-a]pyrazin-7-yl)-thieno[2,3-d]pyrimidin-2-yloxy]-propionic acid hydrazide] showed a Ki of 16 nM.
Compound `CCCc1cc2c(N3CCn4c(nnc4C(F)(F)F)C3)nc(OC(C)CNC=O)nc2s1` (stereo not shown) [Example 9-74, N-{2-[6-Propyl-4-(3-trifluoromethyl-5,6-dihydro-8H-[1,2,4]triazolo[4,3-a]pyrazin-7-yl)-thieno[2,3-d]pyrimidin-2-yloxy]-propyl}-formamide] registered a Ki of 3.8 nM.

As a reminder, the Ki is the equilibrium dissociation constant of an inhibitor or competing ligand from its target.
